Laboratory results reported in ChEMBL document CHEMBL1201862, “PubChem BioAssay data set” (2004).
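All cell lines were grown in 96-well plates and treated with compound for 48 hours. At the GI50, growth is halved.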 Activity calls are given as the source filed them. No stated cut-off is given here; in the data, active = GI50 up to about 1.1 µM and inactive = higher.

Assays:
Assay in all cases: NCI tumour cell line growth inhibition, 48 h
UACC-257 = system: UACC-257
OVCAR-5 = system: OVCAR-5
TK-10 = system: TK-10
SNB-19 = system: SNB-19
OVCAR-4 = system: OVCAR-4
SK-OV-3 = system: SK-OV-3
RXF 393 = system: RXF 393
HOP-92 = system: HOP-92
SF-295 = system: SF-295
SK-MEL-28 = system: SK-MEL-28
HOP-62 = system: HOP-62
CAKI-1 = system: CAKI-1
OVCAR-8 = system: OVCAR-8
MCF7 = system: MCF7
MDA-MB-435 = system: MDA-MB-435
CCRF-CEM = system: CCRF-CEM
SK-MEL-5 = system: SK-MEL-5
M14 = system: M14
K562 = system: K562
KM12 = system: KM12
NCI-H460 = system: NCI-H460
SN12C = system: SN12C
HCC 2998 = system: HCC 2998
EKVX = system: EKVX
COLO 205 = system: COLO 205
ACHN = system: ACHN
UO-31 = system: UO-31
SNB-75 = system: SNB-75
UACC-62 = system: UACC-62
A498 = system: A498
T47D = system: T47D
DU-145 = system: DU-145
LOX IMVI = system: LOX IMVI
PC-3 = system: PC-3
OVCAR-3 = system: OVCAR-3
U-251 = system: U-251
SW-620 = system: SW-620
HL-60 = system: HL-60
MDA-N = system: MDA-N
IGROV-1 = system: IGROV-1
A549 = system: A549
BT-549 = system: BT-549
RPMI-8226 = system: RPMI-8226
SK-MEL-2 = system: SK-MEL-2
NCI/ADR-RES = system: NCI/ADR-RES
HCT-116 = system: HCT-116
MOLT-4 = system: MOLT-4
NCI-H23 = system: NCI-H23
SR = system: SR
HCT-15 = system: HCT-15
786-0 = system: 786-0
SF-539 = system: SF-539
SF-268 = system: SF-268
NCI-H226 = system: NCI-H226
HT-29 = system: HT-29
Malme-3M = system: Malme-3M
NCI-H522 = system: NCI-H522
MDA-MB-231 = system: MDA-MB-231

`COc1ccc2nc3n(c2c1)C(c1c(F)cccc1Cl)SC3` (stereo not drawn) was tested, and the GI50 (UACC-257) was > 100 µM (inactive), the GI50 (OVCAR-5) was > 100 µM (inactive) and the GI50 (TK-10) was > 100 µM (inactive). For the same compound, the GI50 (SNB-19) was > 100 µM (inactive), the GI50 (OVCAR-4) was > 100 µM (inactive) and the GI50 (SK-OV-3) was > 100 µM (inactive). For the same compound, the GI50 (RXF 393) was > 100 µM (inactive), the GI50 (HOP-92) was 41.8 µM (inactive) and the GI50 (SF-295) was > 100 µM (inactive). The GI50 (SK-MEL-28) was > 100 µM (inactive), the GI50 (HOP-62) was > 100 µM (inactive) and the GI50 (CAKI-1) was > 100 µM (inactive). The GI50 (OVCAR-8) was 46.8 µM (inactive), the GI50 (MCF7) was > 100 µM (inactive) and the GI50 (MDA-MB-435) was > 100 µM (inactive). The GI50 (CCRF-CEM) was > 100 µM (inactive), the GI50 (SK-MEL-5) was > 100 µM (inactive) and the GI50 (M14) was > 100 µM (inactive). For the same compound, the GI50 (K562) was > 100 µM (inactive), the GI50 (KM12) was > 100 µM (inactive) and the GI50 (NCI-H460) was > 100 µM (inactive). The GI50 (SN12C) was > 100 µM (inactive), the GI50 (HCC 2998) was > 100 µM (inactive) and the GI50 (EKVX) was > 100 µM (inactive). For the same compound, the GI50 (COLO 205) was > 100 µM (inactive), the GI50 (ACHN) was > 100 µM (inactive) and the GI50 (UO-31) was > 100 µM (inactive). For the same compound, the GI50 (SNB-75) was > 100 µM (inactive), the GI50 (UACC-62) was > 100 µM (inactive) and the GI50 (A498) was > 100 µM (inactive). The GI50 (T47D) was > 100 µM (inactive), the GI50 (DU-145) was > 100 µM (inactive) and the GI50 (LOX IMVI) was > 100 µM (inactive). The GI50 (PC-3) was > 100 µM (inactive), the GI50 (OVCAR-3) was > 100 µM (inactive) and the GI50 (U-251) was > 100 µM (inactive). The GI50 (SW-620) was > 100 µM (inactive), the GI50 (HL-60) was 9.31 µM (inactive) and the GI50 (MDA-N) was > 100 µM (inactive). The GI50 (IGROV-1) was > 100 µM (inactive), the GI50 (A549) was > 100 µM (inactive) and the GI50 (BT-549) was > 100 µM (inactive). The GI50 (RPMI-8226) was > 100 µM (inactive), the GI50 (SK-MEL-2) was > 100 µM (inactive) and the GI50 (NCI/ADR-RES) was 23.3 µM (inactive). The GI50 (HCT-116) was > 100 µM (inactive), the GI50 (MOLT-4) was > 100 µM (inactive) and the GI50 (NCI-H23) was > 100 µM (inactive). The GI50 (SR) was > 100 µM (inactive), the GI50 (HCT-15) was over 100 µM and the GI50 (786-0) was > 100 µM (inactive).
`CC(NC(=O)c1ccc(OP(=O)(OCc2ccc([N+](=O)[O-])o2)N(C)CCCCCl)cc1)c1ccc(OCC2CCCCC2)c(C(N)=O)c1` (stereo not drawn) was tested, and the GI50 (UACC-257) was 3.87 µM (inactive), the GI50 (OVCAR-5) was 15.2 µM (inactive) and the GI50 (TK-10) was 6.43 µM (inactive). The GI50 (SNB-19) was 16.4 µM (inactive), the GI50 (OVCAR-4) was 2.35 µM (inactive) and the GI50 (SK-OV-3) was > 33.1 µM (inactive). The GI50 (RXF 393) was 2.25 µM (inactive), the GI50 (SF-539) was 2.56 µM (inactive) and the GI50 (HOP-92) was 1.19 µM (inactive). For the same compound, the GI50 (SF-295) was 9.51 µM (inactive), the GI50 (SK-MEL-28) was 2.3 µM (inactive) and the GI50 (HOP-62) was 7.05 µM (inactive). For the same compound, the GI50 (CAKI-1) was 12.4 µM (inactive), the GI50 (OVCAR-8) was 4.49 µM (inactive) and the GI50 (MCF7) was 2.77 µM (inactive). For the same compound, the GI50 (MDA-MB-435) was 2.38 µM (inactive), the GI50 (SK-MEL-5) was 1.66 µM (inactive) and the GI50 (M14) was 3.67 µM (inactive). For the same compound, the GI50 (K562) was 2.42 µM (inactive), the GI50 (KM12) was 3.36 µM (inactive) and the GI50 (SF-268) was 2.67 µM (inactive). For the same compound, the GI50 (NCI-H460) was 3.27 µM (inactive), the GI50 (SN12C) was 2.25 µM (inactive) and the GI50 (HCC 2998) was 3.14 µM (inactive). The GI50 (EKVX) was 14.3 µM (inactive), the GI50 (NCI-H226) was 3.98 µM (inactive) and the GI50 (COLO 205) was 2.61 µM (inactive). For the same compound, the GI50 (ACHN) was 3.93 µM (inactive), the GI50 (UO-31) was 1.83 µM (inactive) and the GI50 (SNB-75) was 4.56 µM (inactive). The GI50 (UACC-62) was 2.29 µM (inactive), the GI50 (A498) was 12.9 µM (inactive) and the GI50 (T47D) was 2.06 µM (inactive). For the same compound, the GI50 (DU-145) was 4.27 µM (inactive), the GI50 (LOX IMVI) was 1.87 µM (inactive) and the GI50 (PC-3) was 3.44 µM (inactive). The GI50 (OVCAR-3) was 2.57 µM (inactive), the GI50 (U-251) was 4.29 µM (inactive) and the GI50 (SW-620) was 4.58 µM (inactive). For the same compound, the GI50 (HL-60) was 3.33 µM (inactive), the GI50 (MDA-N) was 2.97 µM (inactive) and the GI50 (HT-29) was 2.63 µM (inactive). For the same compound, the GI50 (IGROV-1) was 2.75 µM (inactive), the GI50 (A549) was 2.7 µM (inactive) and the GI50 (BT-549) was 2.36 µM (inactive). The GI50 (Malme-3M) was 2.52 µM (inactive), the GI50 (RPMI-8226) was 1.03 µM (active) and the GI50 (NCI-H522) was 2.38 µM (inactive). The GI50 (SK-MEL-2) was 3.05 µM (inactive), the GI50 (NCI/ADR-RES) was > 36.6 µM (inactive) and the GI50 (HCT-116) was 2.88 µM (inactive). The GI50 (MOLT-4) was 1.38 µM (inactive), the GI50 (NCI-H23) was 5.19 µM (inactive) and the GI50 (MDA-MB-231) was 2.58 µM (inactive). The GI50 (SR) was 1.73 µM (inactive), the GI50 (HCT-15) was 2.45 µM and the GI50 (786-0) was 4.32 µM (inactive).
